Assay results: ChEMBL document CHEMBL2390845, “Identification of PDZ ligands by docking-based virtual screening for the development of novel analgesic agents” (Bioorg Med Chem Lett, 2013)
Activity calls are given as the source filed them.

Key:
[1] = biological target: Disks large homolog 4 (Homo sapiens) (UniProt P78352); assay: Binding affinity to PSD-95 PDZ1 domain (unknown origin) expressed in Escherichia coli BL21 at 1 mM by 1H-15N HSQC NMR analysis
[2] = biological target: Disks large homolog 4 (Homo sapiens) (UniProt P78352); assay: Binding affinity to PSD-95 PDZ2 domain (unknown origin) expressed in Escherichia coli BL21 at 1 mM by 1H-15N HSQC NMR analysis
Rattus norvegicus [3] = assay: Antihyperalgesic activity in chronic constriction nerve injury-induced rat neuropathic pain model assessed as reduction in mechanical hyperalgesia measuring vocalisation threshold to paw-pressure at 122.6 ng administered intrathecally measured 15 mins post-compound treatment; assay type: functional, organism-based
Rattus norvegicus [4] = assay: Antihyperalgesic activity in intrathecally dosed chronic constriction nerve injury-induced rat neuropathic pain model assessed as vocalisation threshold to paw-pressure measured up to 120 mins post-compound treatment; assay type: functional, organism-based

Sequence of Disks large homolog 4 (Homo sapiens) (P78352 whole entry, looked up, the tested form may be a part): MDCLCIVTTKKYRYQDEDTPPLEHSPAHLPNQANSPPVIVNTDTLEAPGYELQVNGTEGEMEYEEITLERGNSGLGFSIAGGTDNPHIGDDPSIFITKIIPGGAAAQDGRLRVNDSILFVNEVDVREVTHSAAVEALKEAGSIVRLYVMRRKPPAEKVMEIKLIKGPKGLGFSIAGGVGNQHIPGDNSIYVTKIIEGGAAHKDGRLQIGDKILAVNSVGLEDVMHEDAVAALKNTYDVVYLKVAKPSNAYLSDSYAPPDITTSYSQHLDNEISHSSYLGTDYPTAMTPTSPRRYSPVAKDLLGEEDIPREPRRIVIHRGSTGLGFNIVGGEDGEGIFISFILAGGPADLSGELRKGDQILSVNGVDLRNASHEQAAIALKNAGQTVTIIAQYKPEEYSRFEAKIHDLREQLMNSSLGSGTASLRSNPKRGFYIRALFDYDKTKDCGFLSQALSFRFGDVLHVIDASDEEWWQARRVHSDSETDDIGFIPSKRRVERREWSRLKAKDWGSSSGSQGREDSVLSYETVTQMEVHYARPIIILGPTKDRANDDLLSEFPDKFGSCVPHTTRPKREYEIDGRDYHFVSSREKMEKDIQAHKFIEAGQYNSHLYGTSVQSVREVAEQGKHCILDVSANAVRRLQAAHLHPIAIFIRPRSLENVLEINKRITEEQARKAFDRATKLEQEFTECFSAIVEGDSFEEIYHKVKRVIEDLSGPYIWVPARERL

Activity [1]	Activity [2]	SMILES	Activity (Rattus norvegicus [3])	Activity (Rattus norvegicus [4])
inactive	inactive	O=C(N/N=C/c1cccc(O)c1O)c1ccc(O)cc1		
inactive	inactive	O=C(O)c1ccc(N[C@@H]2O[C@H](CO)[C@@H](O)[C@H](O)[C@H]2O)cc1		
Active	Active	Cc1cc2cc(C)c(C(=O)O)nc2cc1C(=O)O	Active	Dose-dependent effect
